Measured values reported in PubChem BioAssay (NCI).
Where “and” joins values, the source holds several entries; their conditions need not be identical. Equal values may be shown once.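 Cells were grown in 96-well plates and exposed to each compound for 48 hours at five concentrations; endpoints were interpolated linearly between bracketing concentrations, or set to the highest concentration if not reached. Abbreviation: GI50, concentration required for 50% inhibition of growth. TGI is the concentration that stops growth completely.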

Legend:
Test in all cases: growth of human tumour cells (NCI), 48 h
[1] = tested on: UO-31 renal
[2] = tested on: SNB-19 CNS
[3] = tested on: HCC-2998 colon
[4] = tested on: MCF7 breast
[5] = tested on: SNB-75 CNS
[6] = tested on: MALME-3M melanoma
[7] = tested on: SF-295 CNS
[8] = tested on: EKVX NSCLC
[9] = tested on: SN12C renal
[10] = tested on: SK-MEL-5 melanoma
[11] = tested on: MOLT-4 leukemia
[12] = tested on: NCI-H23 lung
[13] = tested on: SR leukemia
[14] = tested on: LOX IMVI melanoma
[15] = tested on: HCT-116 colon
[16] = tested on: U251 CNS
[17] = tested on: UACC-62 melanoma
[18] = tested on: M14 melanoma
[19] = tested on: CCRF-CEM leukemia
[20] = tested on: HL-60(TB) leukemia
[21] = tested on: OVCAR-5 ovarian
[22] = tested on: KM12 colon
[23] = tested on: NCI/ADR-RES ovarian
[24] = tested on: BT-549 breast
[25] = tested on: MDA-MB-435
[26] = tested on: UACC-257 melanoma
[27] = tested on: A549 NSCLC
[28] = tested on: COLO 205 colon
[29] = tested on: T-47D breast
[30] = tested on: SF-539 CNS
[31] = tested on: MDA-MB-231 breast
[32] = tested on: HCT-15 colon
[33] = tested on: NCI-H522 lung
[34] = tested on: SK-MEL-2 melanoma
[35] = tested on: TK-10 renal
[36] = tested on: RXF 393 renal
[37] = tested on: OVCAR-4 ovarian
[38] = tested on: DU-145 prostate
[39] = tested on: K-562 leukemia
[40] = tested on: IGROV1 ovarian
[41] = tested on: HOP-62 NSCLC
[42] = tested on: SW-620 colon
[43] = tested on: HS 578T breast
[44] = tested on: SK-OV-3 ovarian
[45] = tested on: 786-0 renal
[46] = tested on: HT29 colon
[47] = tested on: CAKI-1 renal
[48] = tested on: PC-3 prostate
[49] = tested on: OVCAR-8 ovarian
[50] = tested on: RPMI-8226 leukemia
[51] = tested on: NCI-H226 lung
[52] = tested on: OVCAR-3 ovarian
[53] = tested on: SF-268 CNS
[54] = tested on: MDA-N
[55] = tested on: A498 renal
[56] = tested on: ACHN renal
[57] = tested on: NCI-H460 lung
[58] = tested on: HOP-92 NSCLC
[59] = tested on: SK-MEL-28 melanoma

**Q.** Which results are given for N#Cc1c(C#N)c(-c2ccccc2)n(Cc2ccccc2)c1N?
**A.** TGI [1]: > 100 µM; TGI [2]: > 100 µM; TGI [3]: > 100 µM; TGI [4]: > 100 µM; TGI [5]: 64.7 µM; TGI [6]: > 100 µM; TGI [7]: > 100 µM; TGI [8]: > 100 µM; TGI [9]: > 100 µM; TGI [10]: > 100 µM; TGI [11]: > 100 µM; TGI [12]: > 100 µM; TGI [13]: > 100 µM; TGI [14]: > 100 µM; TGI [15]: > 100 µM; TGI [16]: > 100 µM; TGI [17]: > 100 µM; TGI [18]: > 100 µM; TGI [19]: > 100 µM; TGI [20]: > 100 µM; TGI [21]: > 100 µM; TGI [22]: > 100 µM; TGI [23]: > 100 µM; TGI [24]: > 100 µM; TGI [25]: > 100 µM; TGI [26]: > 100 µM; TGI [27]: > 100 µM; TGI [28]: > 100 µM; TGI [29]: > 100 µM; TGI [30]: 63.4 µM; TGI [31]: 86.4 µM; TGI [32]: > 100 µM; TGI [33]: > 100 µM; TGI [34]: > 100 µM; TGI [35]: > 100 µM; TGI [36]: > 100 µM; TGI [37]: > 100 µM; TGI [38]: > 100 µM; TGI [39]: > 100 µM; TGI [40]: > 100 µM; TGI [41]: > 100 µM; TGI [42]: > 100 µM; TGI [43]: > 100 µM; TGI [44]: > 100 µM; TGI [45]: > 100 µM; TGI [46]: > 100 µM; TGI [47]: > 100 µM; TGI [48]: > 100 µM; TGI [49]: 75.4 µM; TGI [50]: > 100 µM; TGI [51]: > 100 µM; TGI [52]: > 100 µM; TGI [53]: > 100 µM; TGI [54]: > 100 µM; TGI [55]: > 100 µM; TGI [56]: > 100 µM

**Q.** What does the source list for Cc1ccc(/C=C2/N=C(N/N=C\C(O)C(O)C(O)CO)NC2=O)cc1 (centres undefined)?
**A.** TGI [1]: > 100 µM; TGI [2]: > 100 µM; TGI [57]: > 100 µM; GI50 [3]: > 100 µM and 30.9 µM; TGI [3]: > 100 µM; TGI [4]: > 100 µM; TGI [5]: > 100 µM; GI50 [6]: > 100 µM and 42.1 µM; TGI [6]: > 100 µM; TGI [7]: > 100 µM; TGI [8]: > 100 µM; TGI [9]: > 100 µM; TGI [10]: > 100 µM; GI50 [11]: 46.2 µM; TGI [11]: > 100 µM; TGI [13]: > 100 µM; TGI [14]: > 100 µM; TGI [15]: > 100 µM; TGI [16]: > 100 µM; TGI [18]: > 100 µM; GI50 [19]: 51.5 µM; TGI [19]: > 100 µM; TGI [20]: > 100 µM; TGI [21]: > 100 µM; TGI [22]: > 100 µM; TGI [23]: > 100 µM; TGI [58]: > 100 µM; TGI [24]: > 100 µM; TGI [25]: > 100 µM; TGI [26]: > 100 µM; TGI [27]: > 100 µM; TGI [28]: > 100 µM; TGI [29]: > 100 µM; TGI [30]: > 100 µM; TGI [31]: > 100 µM; TGI [32]: > 100 µM; TGI [33]: > 100 µM; TGI [34]: > 100 µM; TGI [35]: > 100 µM; TGI [36]: > 100 µM; TGI [37]: > 100 µM; TGI [38]: > 100 µM; TGI [39]: > 100 µM; TGI [40]: > 100 µM; TGI [41]: > 100 µM; TGI [42]: > 100 µM; TGI [43]: > 100 µM; TGI [44]: > 100 µM; TGI [45]: > 100 µM; TGI [46]: > 100 µM; TGI [59]: > 100 µM; TGI [47]: > 100 µM; TGI [48]: > 100 µM; TGI [49]: > 100 µM; TGI [50]: > 100 µM; TGI [51]: > 100 µM; TGI [52]: > 100 µM; TGI [53]: > 100 µM; TGI [54]: > 100 µM; TGI [55]: > 100 µM; TGI [56]: > 100 µM

**Q.** For c1ccc2c(c1)nc1n2CSCC1, which TGI [1] is on record?
**A.** The TGI was over 100 µM.

**Q.** And the TGI [2]?
**A.** The TGI was over 100 µM.

**Q.** What about the TGI [57] of the same compound?
**A.** The TGI was over 100 µM.

**Q.** And the TGI [3]?
**A.** The TGI was over 100 µM.

**Q.** What about the TGI [4] of the same compound?
**A.** Its TGI is over 100 µM.

**Q.** What about the TGI [5] of the same compound?
**A.** The TGI was over 100 µM.

**Q.** What about the TGI [7] of the same compound?
**A.** Its TGI is over 100 µM.

**Q.** And the TGI [8]?
**A.** The TGI was over 100 µM.

**Q.** And the TGI [9]?
**A.** The TGI was over 100 µM.

**Q.** What about the TGI [10] of the same compound?
**A.** Its TGI is over 100 µM.

**Q.** And the TGI [11]?
**A.** The TGI was over 100 µM.

**Q.** And the TGI [12]?
**A.** Its TGI is over 100 µM.

**Q.** What about the TGI [13] of the same compound?
**A.** Its TGI is over 100 µM.

**Q.** What about the TGI [14] of the same compound?
**A.** Its TGI is over 100 µM.

**Q.** And the TGI [15]?
**A.** The TGI was over 100 µM.

**Q.** And the TGI [16]?
**A.** The TGI was over 100 µM.

**Q.** What about the TGI [17] of the same compound?
**A.** Its TGI is over 100 µM.

**Q.** And the TGI [18]?
**A.** The TGI was over 100 µM.

**Q.** What about the TGI [19] of the same compound?
**A.** The TGI was over 100 µM.

**Q.** What about the TGI [20] of the same compound?
**A.** The TGI was over 100 µM.

**Q.** What about the TGI [21] of the same compound?
**A.** The TGI was over 100 µM.

**Q.** What about the TGI [22] of the same compound?
**A.** Its TGI is over 100 µM.

**Q.** And the TGI [23]?
**A.** The TGI was over 100 µM.

**Q.** What about the TGI [58] of the same compound?
**A.** The TGI was over 100 µM.

**Q.** What about the TGI [24] of the same compound?
**A.** The TGI was over 100 µM.

**Q.** And the TGI [25]?
**A.** The TGI was over 100 µM.

**Q.** And the TGI [26]?
**A.** The TGI was over 100 µM.

**Q.** And the TGI [27]?
**A.** The TGI was over 100 µM.

**Q.** And the TGI [28]?
**A.** Its TGI is over 100 µM.

**Q.** And the TGI [29]?
**A.** Its TGI is over 100 µM.

**Q.** And the TGI [30]?
**A.** The TGI was over 100 µM.

**Q.** What about the TGI [31] of the same compound?
**A.** Its TGI is over 100 µM.

**Q.** What about the TGI [32] of the same compound?
**A.** Its TGI is over 100 µM.

**Q.** And the TGI [34]?
**A.** Its TGI is over 100 µM.

**Q.** What about the TGI [35] of the same compound?
**A.** Its TGI is over 100 µM.

**Q.** And the TGI [36]?
**A.** The TGI was over 100 µM.

**Q.** And the TGI [37]?
**A.** The TGI was over 100 µM.

**Q.** What about the TGI [38] of the same compound?
**A.** Its TGI is over 100 µM.

**Q.** What about the TGI [39] of the same compound?
**A.** Its TGI is over 100 µM.

**Q.** What about the TGI [40] of the same compound?
**A.** The TGI was over 100 µM.

**Q.** What about the TGI [41] of the same compound?
**A.** The TGI was over 100 µM.

**Q.** What about the TGI [42] of the same compound?
**A.** Its TGI is over 100 µM.

**Q.** What about the TGI [43] of the same compound?
**A.** Its TGI is over 100 µM.

**Q.** What about the TGI [44] of the same compound?
**A.** The TGI was over 100 µM.

**Q.** And the TGI [45]?
**A.** Its TGI is over 100 µM.

**Q.** What about the TGI [46] of the same compound?
**A.** The TGI was over 100 µM.

**Q.** And the TGI [59]?
**A.** The TGI was over 100 µM.

**Q.** And the TGI [47]?
**A.** The TGI was over 100 µM.

**Q.** What about the TGI [48] of the same compound?
**A.** The TGI was over 100 µM.

**Q.** And the TGI [49]?
**A.** Its TGI is over 100 µM.

**Q.** And the TGI [50]?
**A.** The TGI was over 100 µM.

**Q.** What about the TGI [51] of the same compound?
**A.** The TGI was over 100 µM.

**Q.** What about the TGI [52] of the same compound?
**A.** The TGI was over 100 µM.

**Q.** What about the TGI [53] of the same compound?
**A.** Its TGI is over 100 µM.

**Q.** What about the TGI [54] of the same compound?
**A.** The TGI was over 100 µM.

**Q.** What about the TGI [55] of the same compound?
**A.** Its TGI is over 100 µM.

**Q.** What about the TGI [56] of the same compound?
**A.** The TGI was over 100 µM.
